Results published in patent US6090824A, “Therapeutic neurokinin receptor antagonist compounds” (Zeneca Limited, priority 1995, dated 2000).
pKi: −log10 of the molar value.

Legend:
human NK1 receptor = molecular target: T1, human NK1 receptor (Homo sapiens, UniProt P25103); test: SP Receptor Binding Assay (Test A); conditions: human NK1 receptor in MEL cells
T1 construct: expressed in transfected cells; host or cells: Mouse Erythroleukemia (MEL) cells
Text: SP Receptor Binding Assay (Test A)
The human NK1 receptor was isolated and characterized as described in: B. Hopkins, et al. "Isolation and characterization of the human lung NK1 receptor cDNA" Biochem. Biophys. Res. Comm., 1991, 180, 1110-1117; and the NK1 receptor was expressed in Mouse Erythroleukemia (MEL) cells using a procedure similar to that described in Test B below.
(§1) The selectivity of a Compound for binding at the NK1 and the NK2 receptors may be shown by determining its binding at other receptors using standard assays, for example, one using a tritiated derivative of NKB in a tissue preparation selective for NK3 receptors.

human NK2 receptor = molecular target: T2, human NK2 receptor (Homo sapiens, UniProt P21452); test: Neurokinin A (NKA) Receptor Binding Assay (Test B); conditions: human NK2 receptor in MEL cells
T2 construct: expressed in transfected cells; host or cells: Mouse Erythroleukemia (MEL) cells
T2 sequence (P21452 1-398): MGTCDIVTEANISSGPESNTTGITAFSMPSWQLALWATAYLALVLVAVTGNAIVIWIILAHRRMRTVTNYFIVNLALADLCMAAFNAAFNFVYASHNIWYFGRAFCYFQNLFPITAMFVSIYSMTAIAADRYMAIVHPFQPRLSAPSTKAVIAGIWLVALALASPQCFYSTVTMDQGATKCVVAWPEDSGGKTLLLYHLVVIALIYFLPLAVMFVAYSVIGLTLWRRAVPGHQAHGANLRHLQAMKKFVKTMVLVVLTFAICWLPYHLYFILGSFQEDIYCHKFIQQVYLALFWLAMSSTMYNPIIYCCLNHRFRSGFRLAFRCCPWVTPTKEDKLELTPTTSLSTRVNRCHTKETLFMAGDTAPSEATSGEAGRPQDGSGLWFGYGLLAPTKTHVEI
Text: Neurokinin A (NKA) Receptor Binding Assay (Test B)
as §1

T1 sequence (P25103 whole entry): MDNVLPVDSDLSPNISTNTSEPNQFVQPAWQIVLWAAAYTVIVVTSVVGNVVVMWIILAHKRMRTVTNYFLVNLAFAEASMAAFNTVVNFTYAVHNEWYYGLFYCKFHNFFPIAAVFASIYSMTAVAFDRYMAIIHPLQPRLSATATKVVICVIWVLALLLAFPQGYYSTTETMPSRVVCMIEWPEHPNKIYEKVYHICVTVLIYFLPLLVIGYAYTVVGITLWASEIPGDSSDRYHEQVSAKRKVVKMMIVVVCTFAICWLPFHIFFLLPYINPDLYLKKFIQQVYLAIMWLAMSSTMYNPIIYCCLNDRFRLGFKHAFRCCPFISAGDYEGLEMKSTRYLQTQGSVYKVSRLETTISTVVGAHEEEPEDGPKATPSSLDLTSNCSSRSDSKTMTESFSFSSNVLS

pKi (human NK1 receptor): 6.79 | pKi (human NK2 receptor): 8.17
SMILES: CC(=O)NC1(c2ccccc2)CCN(CCC(OC(=O)NCc2ccccc2)c2ccc(Cl)c(Cl)c2)CC1 (centres unmarked) [Example 1, N-Benzyl-3-(4-acetamido4-phenylpiperidino)-1-(3,4-dichlorophenyl)propyl carbamate]
